Laboratory results from patent publication US20240075073A1, “TREATING OPTIC NEURITIS WITH INDUCED PLURIPOTENT STEM CELL-DERIVED OLIGODENDROCYTE PRECURSOR CELLS” (Mayo Foundation for Medical Education and Research, priority 2016, published 2024).
Entries after “also recorded” stand apart in the source; their conditions may differ.

Assays:
murine optic nerves [1] = conditions: mice on diet containing 0.3% cuprizone; cited from earlier work
murine optic nerves [2] = assay: PPD staining and electron microscopy of optic nerve sections, cuprizone demyelination and remyelination after OPC transplant; format: in vivo, mice
Description: (§1) Cuprizone is a copper chelator, which causes apoptosis of mature oligodendroglia, followed by microglial recruitment, and phagocytosis of myelin. Demyelination was induced by feeding mice a diet containing 0.3% cuprizone for 9 weeks. […] Peak demyelination occurred at 6-7 weeks with spontaneous remyelination occurring 2-4 weeks after transition to regular diet. Efficacy of OPC transplants upon reintroduction of regular diet was evaluated. Assessment of remyelination following transplant was performed as described elsewhere (Deb et al., PLoS One, 5:e12478 (2010)). Briefly, semi-thin sections of optic nerves were stained with para-phenylenediamine, imaged at 100× magnification following a predetermined sampling scheme, and analyzed using automated ImageJ macros to measure myelinated fibers.
For collection of optic nerves and brain tissue, mice were perfused with 4% paraformaldehyde or Trump's fixative, and CNS tissues were post-fixed in the respective solution for 24 hours.
Cuprizone is a copper chelator that causes apoptosis of mature oligodendroglia, followed by microglial recruitment and phagocytosis of myelin. Demyelination was induced by feeding mice a diet containing 0.3% cuprizone for 9 weeks. […] Peak demyelination occurs at 6-7 weeks with spontaneous remyelination occurring 2-4 weeks after transition to regular diet. […] Optical coherence tomography (OCT) provided quantitative assessment of neuroretinal integrity. The retinal layers measured along the green line in FIG. 4E in a healthy mouse (FIG. 4F). Note the clear retinal nerve fiber layer (RNFL), as outlined in FIG. 4H. The retinal layers measured along the yellow line in FIG. 4E in a healthy mouse (FIG. 4G). Note the thick ganglion cell layer (GCL), as outlined in FIG. 4H. Head mount surgery for placement of VEP electrodes and recording locations (FIG. 4I-K). Visual evoked potentials (VEPs) measured in the visual cortex induced by a 0.3 Hz light pulse (FIG. 4L). […] VEP averaging is used to establish measurements of evoked potential amplitude, latency, and pulse width (FIG. 4M). […]

[3] = tested on: optic nerve of cuprizone-fed mice; assay: Visual evoked potentials (VEP) in cuprizone-fed mice with or without OPC transplant; format: in vivo
Description: as §1
Maintaining a sterile field, 1.0 μL of media containing >10^4 OPCs were injected into the vitreous humor of anesthetized mice, using a custom 34-gauge needle mounted on a 5 μL Hamilton syringe. Despite the small dimensions of the murine eye and the high needle gauge, OPCs were consistently and reproducibly delivered into the vitreous cavity with this method, and transferred cells were imaged using fluorescent fundus imaging of the mouse eye (evidence from >30 mice; data not included) (FIG. 6A).
To measure the functional outcomes of OPC transplantation, VEPs were recorded. Intracranial supradural screw electrodes (plastics1.com 8L0X3905201F) were implanted over the visual cortex as described elsewhere (Deb et al., (2010) PLoS One 5:e12478) (FIG. 4I-4K). After dark adaptation, mice were placed in a recording chamber connected to a recording system (8200-K1-SE3, Pinnacle Technology) using an implanted EEG headmount (8235-SM, Pinnacle Tech) tethered to a preamplifier (8202-SE3, Pinnacle Tech) and an analog-to-digital converter. Mice were visually stimulated by an on-axis flashing LED. VEPs were recorded with varying stimulus blocks from 0.1 Hz to 1000 Hz (controlled via a programmable Arduino Diecimila). Recording parameters measured latency to N1 (the first negative peak following stimulation), amplitude range between Nmax-Pmax (first positive peak after stimulation), number of stimuli not followed by a response, duration of visual evoked response, pulse width of Pmax. Any delay in conduction velocity through the optic nerve increased time to N1, whereas axonal degeneration led to decrease in amplitude range, and an increase in response duration as well as increased pulse width due to non-synchronous firing of neurons, providing a very sensitive measure of optic nerve function.
Mice were subjected to electrode implantation surgery and either received OPC transplant or served as controls (FIGS. 7A-C), and visual evoked potential (VEP) averaging was used to establish measurements of evoked potential amplitude, latency, and peak pulse-width (FIG. 7D). Representative waveforms of VEP recordings in a healthy control animal (FIG. 7E), cuprizone-fed animal (FIG. 7F), and cuprizone-fed animal transplanted with OPCs (FIG. 7G). Latency was measured as the time from the visual stimulus to the first negative peak in the VEP impulse (FIG. 7H). An increased latency indicated decreased conduction velocity as a result of loss of myelin and Nodes of Ranvier. […] Peak width was measured as the duration of the first positive impulse at half-maximum amplitude. […]

[4] = 0.3 Hz stimulation frequency, cuprizone-fed animal compared to regular diet (FIG. 4N)

**Q.** For `O=C(NN=C1CCCCC1)C(=O)NN=C1CCCCC1` [cuprizone], which “time of peak demyelination” value (murine optic nerves [1]) is on record?
**A.** Its value is 6-7 weeks.

**Q.** What about the “optic nerve myelination, PPD staining of semi-thin sections” value (murine optic nerves [2]; after 6 weeks of cuprizone treatment) of the same compound?
**A.** The value was “profound demyelination”.

**Q.** And the “optic nerve myelination, PPD staining of semi-thin sections” value (murine optic nerves [2]; after 9 weeks of cuprizone treatment)?
**A.** Its value is “profound demyelination”.

**Q.** And the “myelin layers in electron micrographs of thin optic nerve cross sections” value (murine optic nerves [2]; cuprizone-treated animals, no transplant)?
**A.** The value was “thinning and disorganization of myelin layers; also recorded: thinning, and disorganization of myelin layers”.

**Q.** What about the “failure to transmit impulses in VEP recording” value [3, 4] of the same compound?
**A.** Its value is “increased failure to transmit impulses”.

**Q.** What about the “latency to N1 in VEP recording from visual cortex” value [3, 4] of the same compound?
**A.** The value was “increased latency to N1”.

**Q.** What about the “average latency (time from visual stimulus to first negative peak in the VEP impulse)” value ([3]; after cuprizone treatment for nine weeks, no transplant, healthy baseline 276 ms, n=5) of the same compound?
**A.** The value was 371 ms.

**Q.** And the “peak width, shortest half for peak width values” ([3]; after demyelination with cuprizone, no transplant, n=5)?
**A.** Its value is “increased”.

**Q.** And the “number of missed responses” value ([3]; cuprizone-fed animals, no transplant, n=5)?
**A.** The value was “greatly increased”.
